# Measured values reported in patent US7151090B2, “Methods for enhancing graft survival by modulating heme oxygenase activity” (priority 1998, dated 2006).
# “Also recorded” adds a separate entry of the source.
# Key:
# [1] = tested on: liver isografts; test: OLT immunohistochemistry for mononuclear cell (MNC) infiltration; format: in vivo, rat
# Procedure: OLTs were examined serially by immunohistochemistry for mononuclear cell (MNC) infiltration. Briefly, liver tissue was embedded in Tissue Tek OCT compound (Miles Inc., Elkhart, Ind., USA), snap frozen in liquid nitrogen, and stored at −70° C. Cryostat sections (5 μm) were fixed in acetone, and then endogenous peroxidase activity was inhibited with 0.3% H2O2 in PBS. Normal heat-inactivated donkey serum (10%) was used for blocking. Appropriate primary mouse Ab against rat T cells (R73) and monocytes/macrophages (ED1) (Harlan Bioproducts for Science, Indianapolis, Ind., USA) were added at optimal dilutions. Bound primary Ab was detected using biotinylated donkey anti-mouse IgG and streptavidin peroxidase-conjugated complexes (DAKO Corp., Carpinteria, Calif., USA). The control sections were performed by replacing the primary Ab with either dilution buffer or normal mouse serum. The peroxidase reaction was developed with 3,3-diaminobenzidine tetrahydrochloride (Sigma Chemical Co., St. Louis, Mo., USA). The sections were evaluated blindly by counting the labeled cells in triplicates in 10 high-power fields.
# [2] = tested on: fatty liver isografts from obese Zucker donors in lean Zucker recipients; test: Syngeneic orthotopic liver transplant (OLT) model, survival and sGOT; format: in vivo, rat
# Procedure: Syngeneic Orthotopic Liver Transplant (OLT) model: Syngeneic liver transplants were performed using fatty livers that were harvested from obese Zucker rats and stored for 4 hours at 4° C. in University of Wisconsin (UW) solution before being transplanted into lean Zucker recipients. OLTs were performed with revascularization without hepatic artery reconstruction. There were 2 treatment groups. In the first group, obese Zucker rats (n=10) received CoPP (5 mg/kg intraperitoneally) 24 hours before the procurement. Group 2 donors (n=11) were treated with Ad-HO-1 (2.4×10^9 pfu intravenously) 24 hours before harvest. OLT recipients were followed for survival and serum glutamic-oxaloacetic trans-aminase (sGOT) levels. Separate groups of rats (n=2/group) were sacrificed at 1, 7, 14, and 100 days after OLT, and liver samples were collected for H&E/immunohistology staining and Western blot analysis.
# [3] = tested on: fatty livers from obese Zucker rats; test: Ex vivo steatotic rat liver cold ischemia model followed by reperfusion; format: in vivo; details: for bile production / portal blood flow: 2-hour reperfusion after 6 hours cold ischemia; for bile production / portal blood flow / I/R-induced hepatocyte injury measured by sGOT release: compared with untreated controls; for I/R-induced hepatocyte injury measured by sGOT release: 2-hour reperfusion
# Procedure: Animals, metalloporphyrins, and adenovirus constructs are described in Example 3. Ex vivo cold ischemia model: Genetically obese Zucker rats underwent ether anesthesia and systemic heparinization. […] Control livers from untreated obese Zucker rats were stored for 6 hours at 4° C. in UW solution (n=6). There were 4 treatment groups. Group 1 animals received CoPP, the HO-1 inducer (5 mg/kg intraperitoneally) 24 hours before liver harvest (n=6). Group 2 rats were infused with Ad-HO-1 or Ad-β Gal (2.4×10^9 plaque-forming units (pfu) […]) 24 to 48 hours before the procurement (n=4–10). Group 3 donors were treated with Ad-HO-1 (2.4×10^9 pfu intravenously) at day-2, followed 1 day later by infusion of ZnPP (20 mg/kg intraperitoneally), the HO-1 inhibitor (n=4). Group 4 rats received ZnPP alone (20 mg/kg intraperitoneally) at 24 hours before harvest (n=4). All livers were procured at day 0, stored for 6 hours at 4° C. in UW solution, and then perfused on an isolated perfusion rat liver apparatus, as described. The Zucker livers were perfused ex vivo for 2 hours while temperature, pH, and inflow pressure were kept constant. Portal vein blood flow and pressure were recorded every 15 minutes, whereas bile output was monitored every 30 minutes. Portal vein blood flow was adjusted to maintain portal pressures of 13 to 18 cm H2O. Blood was collected at 30-minute intervals and serum glutamic-oxaloacetic trans-aminase (sGOT) levels were measured using an autoanalyzer from ANTECH Diagnostics (Irvine, Calif., USA). Following 2 hours of perfusion, a portion of the liver was snap-frozen for mRNA extraction and Western blot analysis of HO-1 expression; the remaining tissue samples were fixed in formalin for hematoxylin and eosin (H&E) staining.
# [4] = tested on: liver isografts; test: OLT liver histology, modified Suzuki's criteria; format: in vivo, rat; details: day 1 after transplant; graded 0 to 4; control 3.33±0.58
# Excerpt: Histology and immunohistochemistry: Liver specimens were fixed in a 10% buffered formalin solution and embedded in paraffin. Sections were made at 4 μm and stained with H&E. The previously published Suzuki's criteria (Suzuki et al., Transplantation 55:1265–1272 (1993)), […] were modified to evaluate the histologic severity of I/R injury in the OLT model. In this classification sinusoidal congestion, hepatocyte necrosis, and ballooning degeneration are graded from 0 to 4. No necrosis, congestion or centrilobular ballooning is given a score of 0, whereas severe congestion and ballooning degeneration as well as greater than 60% lobular necrosis is given a value of 4.
# [5] = tested on: EL4 cells; test: Cytotoxic T-cell activity, four hour chromium release assay; format: cell-based, mouse; details: for target cell lysis: at about 10 μg/ml, cytotoxic T-cells, E:T 20:1, four hour incubation; for chromium release from target cells: at concentrations higher than about 10 μg/ml, compared with spontaneous release without compound
# Excerpt: Cytotoxic T-cell Activity: To assay the effect of metalloprotoporphyrins on cytotoxic T-cell activity, CBA to B6 effectors were generated following a five day culture of 3×10^6 CBA spleen cells with 3×10^6 mitomycin-treated B6 spleen cells in wells of a 24-well plate (Nunclone, Delta, Nunc, Denmark) in R-10 medium. Effector cells were then harvested and washed. (H2^b), a mouse lymphoma induced in C57BL/6N was used as target cells. EL4 cells were routinely subcultured once every three days. They were then collected, washed, and labeled with 0.1 mCi of sodium chromate-51 in 200 μl for one hour at 37° C. Effector (E) and target (t) cells were added into V-shaped tissue culture plates (Nunc, Denmark) at E:T of 20:1. Metalloprotoporphyrins were diluted to the working concentrations with PBS and added at the beginning of the four hour incubation period. For the determination of maximal release, 1% triton X-100 was added to separate wells. Plates were centrifuged for three minutes to increase cellular contact before the four hour incubation period. After incubation 75 μl supernatant from each well was collected and the amount of^51Cr released was counted using a TopCount scintillation counter. The degree of cell lysis was calculated using the formula below: […]
# [6] = tested on: HO-1; test: Western analysis of HO-1 expression in the OLT model; format: in vivo, rat; details: day 1, 7, 14 and 100 after transplant; densitometer; untreated 0.09–0.85 AU
# Procedure: (§1) Western blots: Protein was extracted from liver tissue samples with PBSTDS buffer (50 mM Tris, 150 mM NaCl, 0.1% SDS, 1% sodium deoxycholate, and 1% Triton X-100, pH 7.2). Proteins (30 μg/sample) in SDS-loading buffer (50 mM Tris, pH 7.6, 10% glycerol, 1% SDS) were subjected to 12% SDS-PAGE and transferred to nitrocellulose membrane (Bio-Rad Laboratories Inc., Hercules, Calif., USA). The gel was then stained with Coomassie blue to document equal protein loading. The membrane was blocked with 3% dry milk and 0.1% Tween-20 (Amersham, Arlington Heights, Ill., USA) in PBS and incubated with rabbit anti-rat HO-1 polyclonal Ab (Sangstat Corp., San Francisco, Calif., USA). The filters were washed and then incubated with horseradish peroxidase donkey anti-rabbit Ab (Amersham Life Sciences, Arlington Heights, Ill., USA). Relative quantities of HO-1 protein were determined using a densitometer (Kodak Digital Science 1D Analysis Software, Rochester, N.Y., USA) and results were expressed in absorbance units (AU).
# [7] = tested on: HO-1; test: Rat sandwich ELISA of HO-1 protein in liver; format: in vivo; details: 5 mg/kg intraperitoneally
# Procedure: To test that stress-induced upregulation of HO-1 reduces I/R insult in steatotic rat livers, we have chosen 2 distinct HO-1-inducing approaches. First, donor rats were pretreated with CoPP (5 mg/kg intraperitoneally), a regimen that increases HO-1 protein levels in rat livers by 250% in a rat sandwich ELISA. Second, because infusion of CoPP in high doses may modulate other heme enzymes such as nitric oxide synthase (NOS) and guanylate cyclase, we have also used Ad-based gene delivery to provide “proof of principle” and to selectively upregulate HO-1 expression in prospective liver donors. Western blot analysis confirmed increased HO-1 protein expression in the ex vivo I/R model using Ad-HO-1-transduced rat steatotic livers.
# [8] = tested on: C57B1/6 heart allografts in CBA recipients; test: Heterotopic heart transplantation, allograft survival; format: in vivo, mouse; details: control 7.8±1.1
# Procedure: FIG. 2 is a graph showing the prolongation of heart allograft survival following metalloprotoporphyrin therapy. CBA recipients of C57B1/6 heart allografts were either untreated or treated as follows: Zn-protoporphyrin group (n=4); Zn-protoporphyrin was administered at 10 mg/kg/day on day −1 before transplantation and on days 1–9 post transplantation. Co-protoporphyrin group (n=4); Co-protoporphyrin was administered at 20 mg/kg/day on days 0–5 post-transplantation; Zn-protoporphyrin pretreatment group (n=3); heart donors were treated one day before transplantation with 50 mg/kg Zn-protoporphyrin.
# Heterotopic Heart Transplantation: Abdominal heterotopic heart transplantation was performed as previously described by Ono and Lindsey, J. Thorac. Cardiovasc. Surg. 7:225–229 (1969) using […] donors and CBA recipients. Metalloporphyrin was administered intraperitoneally using various protocols. Heart allograft survival was monitored daily by direct palpation, and rejection was defined as termination of palpable cardiac contractility. Results are expressed as percentage graft survival at a given postoperative period. Statistical analysis was performed with the Mann-Whitney test.
# [9] = tested on: HO-1; test: Western analysis of HO-1 expression in the ex vivo I/R injury model; parameters: species or system rat; details: at completion of 2-hour perfusion period; densitometer; untreated 0.11 AU
# Procedure: as §1
# Western blots were performed as described in Example 3.
# [10] = tested on: fatty livers from obese Zucker rats; test: Liver histology in the ex vivo cold ischemia model, Banff's criteria; parameters: species or system rat; details: after 2 hours perfusion; graded 1 to 4; untreated 3.0±0.63
# Excerpt: Histology and immunohistochemistry: Liver specimens were fixed in a 10% buffered formalin solution and embedded in paraffin. Sections were made at 4 μm and stained with H&E. The histologic severity of I/R injury in the ex vivo perfusion model was graded using International Banff Criteria. Using these criteria, lobular disarray and ballooning changes are graded from 1 to 4, where no change is given a score of 1 and severe disarray or ballooning changes is given a score of 4.
# [11] = recipients treated i.p., Zn 10 mg/kg/day day -1 and days 1-9, Co 20 mg/kg/day days 0-5
SMILES,"intragraft T cells ([1]; day 1, labeled cells counted in 10 high-power fields, control 9±3)","intragraft monocytes/macrophages ([1]; day 1, labeled cells counted in 10 high-power fields, control 136±31)",hepatocyte architecture and MNC infiltrate of long-term liver grafts ([1]; grafts harvested at day 100),"sGOT levels ([2]; day 1 post transplant, control 2695) [IU/L]","sGOT levels ([2]; day 7 post transplant, control 1570) [IU/L]","sGOT levels ([2]; day 14 post transplant, control 460) [IU/L]",recipients still alive at well over 100 days after transplant ([2]; lean Zucker rats engrafted with livers from treated obese Zucker donors),bile production [3],portal blood flow [3],I/R-induced hepatocyte injury measured by sGOT release [3],"sGOT concentrations ([3]; at 60 minutes of reperfusion, untreated controls 102±8.23) [IU/L]",Suzuki score [4],target cell lysis [5] [%],chromium release from target cells [5],HO-1 expression [6],increase of HO-1 protein levels in rat livers [7] [%],"heart allograft survival (mean survival time) [8, 11] [days]",HO-1 expression [9] [AU],Banff's score [10],heart allograft survival (mean survival time) ([8]; heart donors pre-treated one day before transplantation (50 mg/kg)) [days]
"C=CC1=C(C)c2cc3[n-]c(cc4nc(cc5[n-]c(cc1n2)c(C)c5CCC(=O)[O-])C(CCC(=O)[O-])=C4C)c(C)c3C=C.[Co+2].[H+].[H+] [CoPP, cobalt-protoporphyrin]",2±1,71±12,good preservation of hepatocyte architecture and only mild MNC infiltrate,1838,477,198,8 out of 10,significantly increased; also recorded: significantly higher,significantly improved,markedly reduced,53.3±8.23,1.33±0.70,0,lower than the spontaneous release,1.21–2.14 AU,250,10.5±0.6,2.46,1.21±0.39,
"C=CC1=C(C)c2cc3[n-]c(cc4nc(cc5[n-]c(cc1n2)c(C)c5C=C)C(C)=C4CCC(=O)O)c(CCC(=O)O)c3C.[Zn+2] [ZnPP, Zinc-protoporphyrin]",,,,,,,,diminished,diminished,augmented hepatocyte injury comparable with otherwise untreated fatty controls,,,0,lower than the spontaneous release,,,12.0±2.4,0.12,2.86±0.12,10.3±1.5
